The source of these data is ChEMBL document CHEMBL3779889, “Synthetic approaches to the 2014 new drugs” (Bioorg Med Chem, 2016).

One may read the Ki as the dissociation constant of the complex between target and ligand, obtained from inhibition or displacement. One may read the EC50 as the concentration at which the effect is half-maximal. As usually defined, the half-life is how long it takes for the measured level to halve. One may read the IC50 as the concentration needed to halve the response being measured. Low readings indicate greater potency, high ones weaker potency.

Structures can show the parent of a compound that is named as a salt.

For data set [1], the target named is T1, Sodium/glucose cotransporter 2 (Homo sapiens, UniProt P31639).
T1 sequence (P31639 whole entry): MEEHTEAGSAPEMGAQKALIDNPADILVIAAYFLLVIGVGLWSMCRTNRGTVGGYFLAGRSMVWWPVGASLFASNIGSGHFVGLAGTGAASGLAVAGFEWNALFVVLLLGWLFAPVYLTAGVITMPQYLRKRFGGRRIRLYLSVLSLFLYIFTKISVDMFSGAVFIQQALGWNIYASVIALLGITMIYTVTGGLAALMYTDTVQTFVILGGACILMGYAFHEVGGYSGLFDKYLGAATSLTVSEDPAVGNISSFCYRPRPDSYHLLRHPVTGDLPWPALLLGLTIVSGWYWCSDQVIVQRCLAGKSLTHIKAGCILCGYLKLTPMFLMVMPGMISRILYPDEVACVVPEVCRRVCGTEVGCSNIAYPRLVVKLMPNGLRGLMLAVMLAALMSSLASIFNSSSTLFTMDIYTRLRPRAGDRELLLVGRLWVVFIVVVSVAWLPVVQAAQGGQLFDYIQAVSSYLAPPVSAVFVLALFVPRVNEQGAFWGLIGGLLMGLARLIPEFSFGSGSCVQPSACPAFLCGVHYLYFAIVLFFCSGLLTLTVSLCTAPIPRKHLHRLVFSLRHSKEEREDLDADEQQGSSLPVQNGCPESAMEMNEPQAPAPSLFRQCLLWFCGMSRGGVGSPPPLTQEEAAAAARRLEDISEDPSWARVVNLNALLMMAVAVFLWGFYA
The experiment in a line: Competitive inhibition of human SGLT2 expressed in CHO-K1 cells assessed as inhibition of [14C]-alpha-methylglucoside uptake. It is filed as cell-based.

A further data set deals with Hepatitis C virus. Description: Antiviral activity against HCV genotype 1a. It is filed as functional, organism-based, Hepacivirus hominis. Conditions: subtype 1a.
Data set [2] can be described thus: Half life of compound in human plasma in presence of CYP3A inhibitor ritonavir. The data set is classed as ADME, organism-based. To be noted: with ritonavir (CYP3A inhibitor).
The target in data set [3] is Vascular endothelial growth factor receptor 2 (Homo sapiens, UniProt P35968). The experiment in a line: Inhibition of VEGF2 receptor (unknown origin) by ELISA. A general note: In an ELISA, binding on a coated surface is turned into a signal by an enzyme label.
Vascular endothelial growth factor receptor 2, sequence (P35968 whole entry): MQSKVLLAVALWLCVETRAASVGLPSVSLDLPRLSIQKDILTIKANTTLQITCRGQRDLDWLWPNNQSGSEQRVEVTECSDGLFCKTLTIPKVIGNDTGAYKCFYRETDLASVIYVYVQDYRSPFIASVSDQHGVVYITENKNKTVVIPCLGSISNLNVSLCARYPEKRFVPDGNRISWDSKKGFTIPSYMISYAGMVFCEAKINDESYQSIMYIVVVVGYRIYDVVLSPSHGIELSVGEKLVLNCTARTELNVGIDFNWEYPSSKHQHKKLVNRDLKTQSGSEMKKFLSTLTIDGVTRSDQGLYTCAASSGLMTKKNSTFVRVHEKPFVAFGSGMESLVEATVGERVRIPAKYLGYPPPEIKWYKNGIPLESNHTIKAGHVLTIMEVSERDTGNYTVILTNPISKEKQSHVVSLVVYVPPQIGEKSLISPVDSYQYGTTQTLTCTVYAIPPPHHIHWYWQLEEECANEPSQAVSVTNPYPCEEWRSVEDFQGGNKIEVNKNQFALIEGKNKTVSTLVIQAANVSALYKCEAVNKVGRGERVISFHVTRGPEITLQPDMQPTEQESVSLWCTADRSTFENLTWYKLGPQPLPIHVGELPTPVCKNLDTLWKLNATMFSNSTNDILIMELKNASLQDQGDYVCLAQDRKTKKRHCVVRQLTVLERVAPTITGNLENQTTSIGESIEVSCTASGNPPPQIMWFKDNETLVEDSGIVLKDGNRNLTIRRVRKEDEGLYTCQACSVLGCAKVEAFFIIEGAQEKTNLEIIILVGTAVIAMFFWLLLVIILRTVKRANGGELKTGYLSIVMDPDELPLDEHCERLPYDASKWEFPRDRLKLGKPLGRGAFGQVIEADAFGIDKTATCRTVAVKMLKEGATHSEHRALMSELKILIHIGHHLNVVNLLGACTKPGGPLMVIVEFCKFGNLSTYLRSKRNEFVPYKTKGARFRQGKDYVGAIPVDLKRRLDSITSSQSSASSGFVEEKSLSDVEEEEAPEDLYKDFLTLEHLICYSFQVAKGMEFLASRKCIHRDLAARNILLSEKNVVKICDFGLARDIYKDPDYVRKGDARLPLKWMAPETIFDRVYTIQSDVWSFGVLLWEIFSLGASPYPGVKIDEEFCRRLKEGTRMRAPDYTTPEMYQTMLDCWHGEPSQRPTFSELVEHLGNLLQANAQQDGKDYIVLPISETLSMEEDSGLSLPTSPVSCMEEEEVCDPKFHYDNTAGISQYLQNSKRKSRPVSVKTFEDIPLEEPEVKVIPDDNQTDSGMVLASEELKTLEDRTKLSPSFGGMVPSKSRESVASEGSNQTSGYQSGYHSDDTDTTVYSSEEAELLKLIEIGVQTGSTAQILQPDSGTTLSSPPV

With `CCOc1ccc(Cc2cc([C@@H]3S[C@H](CO)[C@@H](O)[C@H](O)[C@H]3O)c(OC)cc2C)cc1`, the Ki in data set [1] amounted to 1.1 nM. In the data set on Hepatitis C virus, `Cc1cnc(C(=O)N[C@H]2CCCCC/C=C\[C@@H]3C[C@@]3(C(=O)NS(=O)(=O)C3CC3)NC(=O)[C@@H]3C[C@@H](Oc4nc5ccccc5c5ccccc45)CN3C2=O)cn1.O.O` yielded an EC50 of 1 nM. The half-life in data set [2] was 5.5 h. For `N#CC1(c2ccc(NC(=O)c3cccnc3NCc3ccncc3)cc2)CCCC1` [RIVOCERANIB MESYLATE], the IC50 in data set [3] came out at 1 nM.
